Experimental data from a melting point compilation (Tetko et al.).

**Q.** Which melting point does the source give for `O=C(O)c1noc2c1CCCC2` here?
**A.** 124 to 126 °C

**Q.** For `Cc1c(C(=O)O)cnc2ccccc12`, which melting point is on record?
**A.** 254 to 256 °C

**Q.** With `Cc1cc(S(=O)(=O)Cl)cc(C)c1F` as the compound, how does the melting point read?
**A.** 88 to 90 °C

**Q.** For `N#Cc1ccc(CS(=O)(=O)NN)cc1`, which melting point is on record?
**A.** 142 to 144 °C

**Q.** With `CCN(C(C)=O)C(C(=O)O)c1ccc(F)c(F)c1` (configuration not stated) as the compound, how does the melting point read?
**A.** 205 to 207 °C

**Q.** For `COc1ccccc1C(=O)NC(=O)CCl`, which melting point is on record?
**A.** 118 to 120 °C

**Q.** With `O=c1[nH]cnc2ccc([N+](=O)[O-])cc12` as the compound, how does the melting point read?
**A.** 284 to 286 °C

**Q.** With `Cc1ncsc1C(=O)NN` as the compound, how does the melting point read?
**A.** 168 to 170 °C

**Q.** With `Cc1c(Br)cccc1CO` as the compound, how does the melting point read?
**A.** 89 to 91 °C

**Q.** With `Nc1cc2ccccc2c(=O)[nH]1` as the compound, how does the melting point read?
**A.** 319 to 321 °C

**Q.** For `CCOC(=O)/C(C#N)=C/Nc1ccc(OCC)cc1`, which melting point is on record?
**A.** 115 to 117 °C

**Q.** Which melting point does the source give for `CNc1ccc([N+](=O)[O-])cc1C(=O)O` here?
**A.** 261 to 263 °C

**Q.** Which melting point does the source give for `Cc1n[nH]c(-c2ccc(N)cc2)n1` here?
**A.** 179 to 181 °C

**Q.** Which melting point does the source give for `NC(=O)CC(NC(=O)c1ccccc1Cl)C(=O)O` (configuration not stated) here?
**A.** 190 to 192 °C

**Q.** With `O=C(CCl)NC12CC3CC(CC(C3)C1)C2` as the compound, how does the melting point read?
**A.** 110 to 112 °C

**Q.** Which melting point does the source give for `Cc1cc(N)n(Cc2ccccc2)n1` here?
**A.** 68 to 70 °C

**Q.** For `O=C(O)c1cnn(-c2ncccc2Cl)c1C(F)(F)F`, which melting point is on record?
**A.** 149 to 151 °C

**Q.** For `Cn1cc(C#N)cn1`, which melting point is on record?
**A.** 59 to 61 °C

**Q.** For `NC(=O)C1CCCN(Cc2ccccc2N)C1` (configuration not stated), which melting point is on record?
**A.** 133 to 135 °C

**Q.** For `Nc1ccc(S(=O)(=O)Nc2ccc(F)c(Cl)c2)cc1`, which melting point is on record?
**A.** 173 to 175 °C

**Q.** With `N#Cc1ccc(CSCC(=O)O)cc1` as the compound, how does the melting point read?
**A.** 86 to 88 °C

**Q.** With `CC(Cl)C(=O)Nc1ccccc1C(=O)NCc1ccco1` (configuration not stated) as the compound, how does the melting point read?
**A.** 102 to 104 °C

**Q.** For `CC(CC(=O)O)c1ccccc1C(F)(F)F` (configuration not stated), which melting point is on record?
**A.** 76 to 78 °C

**Q.** Which melting point does the source give for `CNc1ccc(C(=O)O)cn1` here?
**A.** 249 to 251 °C

**Q.** With `COc1ccccc1CNc1cccc2cnccc12` as the compound, how does the melting point read?
**A.** 118 to 120 °C

**Q.** With `N#C/C(=C/c1c[nH]nc1-c1cccc(Br)c1)C(=O)O` as the compound, how does the melting point read?
**A.** 258 to 260 °C

**Q.** Which melting point does the source give for `CC1(C(=O)O)CCc2ccccc2C1` (configuration not stated) here?
**A.** 105 to 107 °C

**Q.** With `NC(=O)Nc1cc(Cl)ccc1C(=O)O` as the compound, how does the melting point read?
**A.** 185 to 187 °C

**Q.** For `CN(C)S(=O)(=O)c1cccc(NC(=S)NN)c1`, which melting point is on record?
**A.** 155 to 157 °C

**Q.** For `O=C(CCl)N1CCN(C(=O)C2COc3ccccc3O2)CC1` (configuration not stated), which melting point is on record?
**A.** 199 to 201 °C

**Q.** Which melting point does the source give for `CNC(=O)NC(=O)CCCCl` here?
**A.** 122 to 124 °C

**Q.** Which melting point does the source give for `COc1cccc(-c2nn(-c3ccc(C)cc3)cc2C(=O)O)c1` here?
**A.** 162 to 164 °C

**Q.** For `O=C(Nc1cn[nH]c1)Oc1ccccc1`, which melting point is on record?
**A.** 179 to 181 °C

**Q.** Which melting point does the source give for `O=C(O)c1ccc(Oc2ccc(F)c(F)c2)cc1` here?
**A.** 156 to 158 °C

**Q.** For `N#Cc1ccccc1N1CCOCC1`, which melting point is on record?
**A.** 48 to 50 °C

**Q.** Which melting point does the source give for `Cn1ccnc1C(=O)c1ccc(Cl)c([N+](=O)[O-])c1` here?
**A.** 145 to 147 °C

**Q.** With `NC(=O)NCC1CCCNC1` (configuration not stated) as the compound, how does the melting point read?
**A.** 83 to 85 °C

**Q.** With `CCOC(=O)c1ccc(NC(=O)CCl)cc1` as the compound, how does the melting point read?
**A.** 38 to 40 °C

**Q.** For `Cn1ccc(S(=O)(=O)N2CCNCC2)c1`, which melting point is on record?
**A.** 129 to 131 °C

**Q.** Which melting point does the source give for `CC(C(=O)c1ccccc1)N1C(=O)CCC1=O` (configuration not stated) here?
**A.** 107 to 109 °C

**Q.** For `Nc1ccc(F)c(NC(=O)c2ccccc2I)c1`, which melting point is on record?
**A.** 147 to 149 °C

**Q.** Which melting point does the source give for `Nc1ncc(Cc2ccccc2)s1` here?
**A.** 106 to 108 °C

**Q.** With `CCOC(=O)c1c(Cl)c2ncc(S(=O)(=O)Cl)cc2n1C` as the compound, how does the melting point read?
**A.** 141 to 143 °C

**Q.** For `Cc1cc(C(=O)CCl)c(C)n1-c1c(C)n(C)n(-c2ccccc2)c1=O`, which melting point is on record?
**A.** 160 to 162 °C

**Q.** With `Nc1ccc(N2CCCC2)cc1C(=O)O` as the compound, how does the melting point read?
**A.** 148 to 150 °C

**Q.** With `Nc1cccc(C2SCCCS2)c1` as the compound, how does the melting point read?
**A.** 140 to 142 °C

**Q.** Which melting point does the source give for `CC(Cl)C(=O)NC(C)c1ccc2c(c1)OCCO2` (configuration not stated) here?
**A.** 110 to 112 °C

**Q.** With `COc1cccc(-n2cncn2)c1` as the compound, how does the melting point read?
**A.** 95 to 97 °C

**Q.** For `Cc1cc(C(=O)O)cc([N+](=O)[O-])c1`, which melting point is on record?
**A.** 169 to 171 °C

**Q.** Which melting point does the source give for `Cc1cccc(C)c1NC(=O)C(=O)O` here?
**A.** 163 to 165 °C

**Q.** With `O=C(O)C1CN(C(=O)c2ccco2)c2ccccc2O1` (configuration not stated) as the compound, how does the melting point read?
**A.** 154 to 156 °C

**Q.** Which melting point does the source give for `O=C(O)C(=O)Cc1cccs1` here?
**A.** 163 to 165 °C

**Q.** Which melting point does the source give for `COC(=O)c1cc(S(N)(=O)=O)ccc1O` here?
**A.** 136 to 138 °C

**Q.** Which melting point does the source give for `CCC(C)(C)NS(=O)(=O)c1ccc(Cl)nc1` here?
**A.** 86 to 88 °C

**Q.** Which melting point does the source give for `CN(C)S(=O)(=O)CCC(=O)O` here?
**A.** 121 to 123 °C

**Q.** Which melting point does the source give for `CC(C)(C)CNc1cccnc1` here?
**A.** 62 to 64 °C

**Q.** For `NS(=O)(=O)c1cccnc1`, which melting point is on record?
**A.** 109 to 111 °C

**Q.** For `CCOc1cc(C=O)ccc1OCc1c(Cl)cccc1Cl`, which melting point is on record?
**A.** 115 to 117 °C

**Q.** With `CC(C)n1ncc(C(=O)O)c1C(F)(F)F` as the compound, how does the melting point read?
**A.** 125 to 127 °C

**Q.** With `Nc1nccc(-c2ccc([N+](=O)[O-])cc2)n1` as the compound, how does the melting point read?
**A.** 217 to 219 °C

**Q.** With `O=[N+]([O-])c1ccc(Cl)c2c1CCCN2` as the compound, how does the melting point read?
**A.** 93 to 95 °C

**Q.** For `O=C(O)C1CCCN1C(=O)Cc1cn2ccsc2n1` (configuration not stated), which melting point is on record?
**A.** 121 to 123 °C

**Q.** Which melting point does the source give for `Cc1nnc(-c2cccc(C(=O)O)c2)o1` here?
**A.** 241 to 243 °C

**Q.** Which melting point does the source give for `O=C(O)c1cnc(COc2ccccc2)s1` here?
**A.** 174 to 176 °C

**Q.** For `Cc1nnc(CO)n1C`, which melting point is on record?
**A.** 155 to 157 °C

**Q.** Which melting point does the source give for `O=S(=O)(Cl)c1cccc(-c2cccs2)c1` here?
**A.** 57 to 59 °C

**Q.** For `COC(=O)c1c(N)cccc1F`, which melting point is on record?
**A.** 53 to 55 °C

**Q.** With `CCOc1ccc(Br)cc1S(=O)(=O)Nc1ccc(N)cc1` as the compound, how does the melting point read?
**A.** 77 to 79 °C

**Q.** For `O=C(O)c1cnc(NC2CC2)s1`, which melting point is on record?
**A.** 217 to 219 °C

**Q.** Which melting point does the source give for `Cc1ccc2c(c1)nc(S)n2Cc1ccccc1Cl` here?
**A.** 189 to 191 °C

**Q.** For `COc1ccc(-c2nc(C(=O)O)cs2)cc1`, which melting point is on record?
**A.** 172 to 174 °C

**Q.** With `N#CC1=C(Cl)CCCC1` as the compound, how does the melting point read?
**A.** 38 to 40 °C
